Consider 9 compounds from PubChem BioAssay (NCI).

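1) Cells in 96-well plates. 2) Compound, 48 h, 5 concentrations. 3) Linear interpolation between surrounding doses. 4) Unreached endpoint = highest concentration. Abbreviation: GI50, concentration required for 50% inhibition of growth. The concentration for full growth arrest is given as TGI.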 A value given as a limit tells only on which side of the number the result lay.

Test systems include SF-295 CNS; SR leukemia; MALME-3M melanoma; U251 CNS; OVCAR-8 ovarian; HCT-15 colon; HL-60(TB) leukemia; 786-0 renal; OVCAR-4 ovarian; SK-MEL-5 melanoma.
Assay in all cases: NCI anticancer screen, dose series, 48 h

With `CC(=O)OCC1O[C@@H]([S-])C(OC(C)=O)[C@H](OC(C)=O)[C@@H]1OC(C)=O.[Au+].c1ccc(CN2[CH-]N(Cc3ccccc3)C(c3ccccc3)=C2c2ccccc2)cc1`, the GI50 with SF-295 CNS was 2.34 µM; in the test with SR leukemia, 0.663 µM; with MALME-3M melanoma it was 1.77 µM; with U251 CNS, 1.61 µM; in the test on OVCAR-8 ovarian it was 2.61 µM; in the test on HCT-15 colon it was 1.47 µM. Also, the GI50 in the test with HL-60(TB) leukemia is 2.24 µM; with 786-0 renal, 1.69 µM; in the test with OVCAR-4 ovarian, 1.4 µM; with SK-MEL-5 melanoma, 1.79 µM. Moreover, the TGI with SF-295 CNS came out at 6.31 µM; in the test on SR leukemia, 7.8 µM; with MALME-3M melanoma, 4.06 µM; in the test with U251 CNS, 3.09 µM; with OVCAR-8 ovarian, 7.38 µM; with HCT-15 colon it was 2.94 µM. In addition, the TGI in the test on HL-60(TB) leukemia turned out to be 6.12 µM; in the test on 786-0 renal, 3.39 µM; in the test on OVCAR-4 ovarian, 3.15 µM; with SK-MEL-5 melanoma it was 3.28 µM.
For the compound `CCOC(=O)NC(=O)c1cn(CCN2CCN(C(=O)CCCCCCCCCCNc3ncnc4nc[nH]c34)CC2)c(=O)[nH]c1=O`, the TGI with SF-295 CNS, with SR leukemia, with MALME-3M melanoma, with U251 CNS, with OVCAR-8 ovarian and with HCT-15 colon was greater than 100 µM each time. For the same compound, the TGI in the test with HL-60(TB) leukemia, in the test with 786-0 renal, in the test on OVCAR-4 ovarian and in the test on SK-MEL-5 melanoma was greater than 100 µM each time.
Regarding `N#Cc1ccc(C(c2ccc(C#N)cc2)n2cncn2)cc1`, the GI50 in the test with SF-295 CNS was 182 µM; in the test on SR leukemia, greater than 5000 µM; with MALME-3M melanoma, greater than 5000 µM; with U251 CNS, 2850 µM; with HCT-15 colon it was greater than 5000 µM; with HL-60(TB) leukemia, greater than 5000 µM. The GI50 in the test on 786-0 renal was greater than 5000 µM; in the test on OVCAR-4 ovarian it was greater than 5000 µM; in the test on SK-MEL-5 melanoma, 3.33 µM. In addition, the TGI in the test on SF-295 CNS, in the test on SR leukemia, in the test on MALME-3M melanoma, with U251 CNS, in the test with OVCAR-8 ovarian and with HCT-15 colon was greater than 5000 µM in each case. In addition, the TGI in the test with HL-60(TB) leukemia, with 786-0 renal, with OVCAR-4 ovarian and in the test on SK-MEL-5 melanoma was greater than 5000 µM in each case.
On to `C#Cc1cccc(Nc2nc3ccc([N+](=O)[O-])cc3nc2Nc2cccc(C#C)c2)c1`, for which the GI50 was 0.172 µM in the test with SF-295 CNS; 0.318 µM in the test with SR leukemia; 0.235 µM in the test on MALME-3M melanoma; 0.18 µM in the test with U251 CNS; 0.303 µM in the test with OVCAR-8 ovarian; 0.197 µM with HCT-15 colon. Besides, the GI50 in the test with HL-60(TB) leukemia was 0.299 µM; in the test on 786-0 renal it was 0.226 µM; in the test on OVCAR-4 ovarian it was 0.218 µM; in the test with SK-MEL-5 melanoma, 0.181 µM. In addition, the TGI with SF-295 CNS came out at 0.416 µM; in the test on SR leukemia, 1.3 µM; in the test with MALME-3M melanoma, 0.614 µM; in the test on U251 CNS, 0.482 µM; in the test with OVCAR-8 ovarian it was 1.46 µM; in the test on HCT-15 colon it was 0.716 µM. The TGI in the test on HL-60(TB) leukemia is 0.788 µM; in the test on 786-0 renal, 0.73 µM; in the test with OVCAR-4 ovarian, 0.982 µM; in the test with SK-MEL-5 melanoma it was 0.349 µM.
Take `CCCSC1=NC2C(N(CC)C(=O)N2CC)N1/N=C/C=C/c1ccccc1[N+](=O)[O-]` (centres undefined): the GI50 with SF-295 CNS was 2.74 µM; with SR leukemia it was 1.1 µM; in the test on MALME-3M melanoma it was 4.74 µM; with U251 CNS it was 3.42 µM; with OVCAR-8 ovarian it was 3.76 µM; in the test with HCT-15 colon it was 2.94 µM. The GI50 in the test on HL-60(TB) leukemia is 3.27 µM; in the test on 786-0 renal, 4.61 µM; in the test on OVCAR-4 ovarian, 6.72 µM; in the test with SK-MEL-5 melanoma it was 2.76 µM. The TGI with SF-295 CNS is greater than 100 µM; in the test on SR leukemia, 5.53 µM; in the test on MALME-3M melanoma, greater than 100 µM; with U251 CNS it was greater than 100 µM; in the test on OVCAR-8 ovarian, greater than 100 µM; with HCT-15 colon, greater than 100 µM. Further, the TGI with HL-60(TB) leukemia is 12.1 µM; in the test with 786-0 renal, greater than 100 µM; with OVCAR-4 ovarian it was greater than 100 µM; with SK-MEL-5 melanoma, 10.3 µM.
Regarding `CC1=C(c2cc(C(=O)Nc3cccc(C(F)(F)F)c3)ncn2)Sc2ccccc2N1`, the TGI in the test with SF-295 CNS, in the test with SR leukemia, in the test on MALME-3M melanoma, with U251 CNS, in the test with OVCAR-8 ovarian and with HCT-15 colon was greater than 100 µM each time. The TGI with HL-60(TB) leukemia, in the test on 786-0 renal, in the test on OVCAR-4 ovarian and in the test on SK-MEL-5 melanoma was greater than 100 µM each time.
Take `CCCCCCCC(=O)SCC/C=C/[C@@H]1CC(=O)NCc2nc(co2)C2=N[C@@](C)(CS2)C(=O)N[C@@H](C(C)C)C(=O)O1`: the GI50 was 0.0264 µM in the test on SF-295 CNS; 0.0164 µM with SR leukemia; 0.0112 µM with MALME-3M melanoma; 0.0448 µM in the test with U251 CNS; 0.0124 µM in the test on OVCAR-8 ovarian; 0.233 µM in the test with HCT-15 colon. Also, the GI50 was 0.0294 µM in the test on HL-60(TB) leukemia, 0.0456 µM in the test on 786-0 renal, 0.0276 µM with OVCAR-4 ovarian and 0.0179 µM with SK-MEL-5 melanoma. Besides, the TGI is 0.282 µM in the test with SF-295 CNS; greater than 50 µM in the test on SR leukemia; greater than 50 µM in the test with MALME-3M melanoma; 0.472 µM in the test with U251 CNS; greater than 50 µM with OVCAR-8 ovarian; greater than 20.4 µM in the test on HCT-15 colon. In addition, the TGI was 31.8 µM with HL-60(TB) leukemia, greater than 50 µM in the test on 786-0 renal, greater than 50 µM in the test with OVCAR-4 ovarian and 0.0776 µM with SK-MEL-5 melanoma.
`CN(C)c1n/c(=N/c2ncn[nH]2)ss1`: the TGI with SF-295 CNS, in the test on SR leukemia, with MALME-3M melanoma, in the test with U251 CNS, with OVCAR-8 ovarian and in the test with HCT-15 colon was greater than 100 µM each time. Further, the TGI in the test with HL-60(TB) leukemia, in the test on 786-0 renal, in the test with OVCAR-4 ovarian and in the test with SK-MEL-5 melanoma was greater than 100 µM in each case.
`O=C(NO)C(=O)Nc1ccc(Cl)cc1[N+](=O)[O-]`: the TGI in the test on SF-295 CNS, in the test on SR leukemia, in the test on MALME-3M melanoma, in the test on U251 CNS, in the test on OVCAR-8 ovarian and in the test with HCT-15 colon was greater than 100 µM each time. Moreover, the TGI in the test with HL-60(TB) leukemia, in the test with 786-0 renal, in the test with OVCAR-4 ovarian and in the test on SK-MEL-5 melanoma was greater than 100 µM throughout.
